Experiments:
Assay in all cases: relative viability (nuclei count vs DMSO), 5 days (fraction); higher = more cells survive
Crenolanib + Luminespib = compound: CC1(COc2ccc3c(c2)ncn3-c2ccc3cccc(N4CCC(N)CC4)c3n2)COC1 [Crenolanib] + CCNC(=O)c1noc(-c2cc(C(C)C)c(O)cc2O)c1-c1ccc(CN2CCOCC2)cc1 [Luminespib] (partner 0.01 µM)
Method in brief: (§1)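 Dosing by pin tool came one day after lung cancer cell lines were seeded in 1536-well plates, using either one drug or a fixed anchor-drug dose plus five library-drug doses (not always all listed) in √10 steps. After 5 days, nuclei were counted on 4× images. Relative viability is treated-well nuclei count divided by vehicle-well nuclei count, and values are medians of duplicate plates.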

Crenolanib + Pictilisib = compound: CC1(COc2ccc3c(c2)ncn3-c2ccc3cccc(N4CCC(N)CC4)c3n2)COC1 [Crenolanib] + CS(=O)(=O)N1CCN(Cc2cc3nc(-c4cccc5[nH]ncc45)nc(N4CCOCC4)c3s2)CC1 [Pictilisib] (partner 1 µM)
Method in brief: as §1

Tivantinib + OSI-027 = compound: O=C1NC(=O)[C@@H](c2cn3c4c(cccc24)CCC3)[C@@H]1c1c[nH]c2ccccc12 [Tivantinib] + COc1cccc2cc(-c3nc([C@H]4CC[C@H](C(=O)O)CC4)n4ncnc(N)c34)[nH]c12 [OSI-027] (partner 0.5 µM)
Method in brief: as §1

Tivantinib + AZD7762 = compound: O=C1NC(=O)[C@@H](c2cn3c4c(cccc24)CCC3)[C@@H]1c1c[nH]c2ccccc12 [Tivantinib] + NC(=O)Nc1cc(-c2cccc(F)c2)sc1C(=O)N[C@H]1CCCNC1 [AZD7762] (partner 0.2 µM)
Method in brief: as §1

Row | Cell Line | relative viability (Crenolanib + Luminespib; first compound 0.01 µM) | relative viability (Crenolanib + Luminespib; first compound 0.03162 µM) | relative viability (Crenolanib + Luminespib; first compound 0.1 µM) | relative viability (Crenolanib + Luminespib; first compound 0.3162 µM) | relative viability (Crenolanib + Luminespib; first compound 1 µM) | relative viability (Crenolanib + Pictilisib; first compound 0.01 µM) | relative viability (Crenolanib + Pictilisib; first compound 0.03162 µM) | relative viability (Crenolanib + Pictilisib; first compound 0.1 µM) | relative viability (Crenolanib + Pictilisib; first compound 0.3162 µM) | relative viability (Crenolanib + Pictilisib; first compound 1 µM) | relative viability (Tivantinib + OSI-027; first compound 0.01 µM) | relative viability (Tivantinib + OSI-027; first compound 0.03162 µM) | relative viability (Tivantinib + OSI-027; first compound 0.1 µM) | relative viability (Tivantinib + OSI-027; first compound 0.3162 µM) | relative viability (Tivantinib + AZD7762; first compound 0.01 µM) | relative viability (Tivantinib + AZD7762; first compound 0.03162 µM) | relative viability (Tivantinib + AZD7762; first compound 0.1 µM) | relative viability (Tivantinib + AZD7762; first compound 0.3162 µM)
1 | NCI-H2087 | 0.184 | 0.195 | 0.167 | 0.191 | 0.184 | 0.804 | 0.918 | 0.665 | 0.761 | 0.861 | 0.635 | 0.511 | 0.465 | 0.478 | 1.28 | 1.47 | 1.12 | 1.32
2 | NCI-H2126 | 0.922 | 0.958 | 0.869 | 0.857 | 0.588 | 0.504 | 0.509 | 0.51 | 0.47 | 0.476 | 0.639 | 0.63 | 0.658 | 0.549 | 1 | 1.03 | 0.94 | 1.04
3 | NCI-H2170 | 0.741 | 0.568 | 0.761 | 1.02 | 0.672 | 0.376 | 0.296 | 0.32 | 0.272 | 0.305 | 0.645 | 0.718 | 0.652 | – | 0.878 | 0.822 | 0.794 | –
4 | NCI-H2347 | 0.44 | – | – | 0.556 | 0.353 | 0.55 | 0.625 | 0.464 | 0.845 | 0.561 | 0.48 | 0.386 | 0.418 | 0.475 | 0.848 | 0.727 | 0.669 | 0.534
5 | NCI-H2405 | 0.786 | 0.83 | – | 0.641 | 0.594 | 0.473 | 0.417 | 0.285 | 0.347 | 0.375 | 0.717 | 0.637 | 0.632 | 0.574 | 0.877 | 0.806 | 0.753 | 0.828
6 | NCI-H3122 | 0.0862 | 0.0824 | 0.0708 | 0.0964 | 0.0864 | 0.549 | 0.497 | 0.561 | 0.732 | 0.738 | 0.985 | 0.914 | 0.93 | 0.207 | 1.05 | 1.07 | 0.761 | 0.923
7 | PC-3 [JPC-3] | 0.806 | 0.761 | 0.676 | 0.742 | 0.71 | 0.736 | 0.635 | 0.746 | 0.695 | 0.703 | 0.841 | 0.724 | 0.716 | 0.48 | 0.781 | 0.823 | 0.884 | 0.601
8 | PC-14 | 0.126 | – | 0.154 | 0.118 | 0.146 | 0.661 | 0.787 | 0.588 | 0.744 | 0.65 | 0.942 | 0.784 | 0.755 | 0.598 | 0.296 | 0.304 | 0.4 | 0.226
9 | RERF-LC-KJ | 1.31 | 1.28 | 1.04 | 1.31 | 1.18 | 0.548 | 0.591 | 0.538 | 0.621 | 0.687 | 0.592 | 0.646 | 0.512 | 0.389 | 1.08 | 0.921 | 0.952 | 0.92
